Where two headings read alike, the source gives them in different places. Values belong to the compound of their own block, whether it stands above or below them.
How the values were obtained:
[1] = biological target: T1, MMP-2 (Homo sapiens, UniProt P08253); test: MMP-2 inhibition assay (fluorogenic peptide substrate); format: biochemical; conditions: for IC50: n.d: not detected
T1 construct: purchased Sino Biological 10082-HNAH
T1 sequence (P08253 110-660): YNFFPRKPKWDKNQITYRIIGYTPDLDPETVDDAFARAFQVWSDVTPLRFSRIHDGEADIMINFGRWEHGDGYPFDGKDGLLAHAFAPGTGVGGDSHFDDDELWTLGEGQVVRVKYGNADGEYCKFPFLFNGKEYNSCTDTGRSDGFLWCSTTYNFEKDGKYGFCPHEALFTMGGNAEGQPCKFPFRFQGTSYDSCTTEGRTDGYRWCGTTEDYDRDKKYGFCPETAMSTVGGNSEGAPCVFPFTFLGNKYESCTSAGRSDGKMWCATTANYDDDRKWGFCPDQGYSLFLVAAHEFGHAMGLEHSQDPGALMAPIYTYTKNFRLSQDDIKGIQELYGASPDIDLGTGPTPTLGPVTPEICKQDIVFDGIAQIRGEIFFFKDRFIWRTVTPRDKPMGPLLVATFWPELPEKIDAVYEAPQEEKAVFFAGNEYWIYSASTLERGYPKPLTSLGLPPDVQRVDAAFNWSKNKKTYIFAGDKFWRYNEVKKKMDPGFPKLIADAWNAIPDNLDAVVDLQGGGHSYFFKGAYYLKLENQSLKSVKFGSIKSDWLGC
Procedure: (§1) The inhibition by the small molecule compounds against MMP-2/MMP-9 was measured using an assay probing the enzyme proteolytic activity on the substrate DNP-Pro-Leu-Gly-Met-Trp-Ser-Arg (Enzo Life Sciences, USA). All assays were performed in the assay buffer containing 50 mM Tris, 100 mM NaCl. 5 mM CaCl2, and 0.1% Brij 35, pH 7.5. Human proMMP-2 and proMMP-9 were purchased from Sino biological (Germany). The proMMPs were activated by 1 mM APMA in the assay buffer at 37 °C for 2 h. After activation, MMP-2 was diluted to 6.5 nM of final assay concentration, and MMP-9 was diluted by the buffer to reach 10 nM of final assay concentration. In each well, 49 μl of enzyme solution was incubated with 1 μl of compounds of series of concentration (nM-mM in DMSO) at RT for 30 min. 2 μl of the FRET substrate was added right before the measurement at a final concentration of 25 μM. The rate of hydrolysis was monitored by quantifying the emission at 360 nm (ex: 280 nm). The emission was measured with intervals of the 30 s for 30 min with Synergy H1 Plate Reader (Agilent, USA). The measurements were done in triplicate. […] Then, curves were plotted as a function of the concentration of the inhibitor against the relative enzyme activity. Vmax was derived from the detected […] signal for each concentration and logistic fitting was performed to obtain IC50 values using Origin 2019b (OriginLab).

[2] = biological target: T2, MMP-9 (Homo sapiens, UniProt P14780); test: MMP-9 inhibition assay (fluorogenic peptide substrate); format: biochemical; design: remaining enzyme activity (% of control): scale not given here; conditions: for IC50: n.d: not detected
T2 construct: purchased Sino Biological 10327-HNAH
T2 sequence (P14780 107-707 limits assumed): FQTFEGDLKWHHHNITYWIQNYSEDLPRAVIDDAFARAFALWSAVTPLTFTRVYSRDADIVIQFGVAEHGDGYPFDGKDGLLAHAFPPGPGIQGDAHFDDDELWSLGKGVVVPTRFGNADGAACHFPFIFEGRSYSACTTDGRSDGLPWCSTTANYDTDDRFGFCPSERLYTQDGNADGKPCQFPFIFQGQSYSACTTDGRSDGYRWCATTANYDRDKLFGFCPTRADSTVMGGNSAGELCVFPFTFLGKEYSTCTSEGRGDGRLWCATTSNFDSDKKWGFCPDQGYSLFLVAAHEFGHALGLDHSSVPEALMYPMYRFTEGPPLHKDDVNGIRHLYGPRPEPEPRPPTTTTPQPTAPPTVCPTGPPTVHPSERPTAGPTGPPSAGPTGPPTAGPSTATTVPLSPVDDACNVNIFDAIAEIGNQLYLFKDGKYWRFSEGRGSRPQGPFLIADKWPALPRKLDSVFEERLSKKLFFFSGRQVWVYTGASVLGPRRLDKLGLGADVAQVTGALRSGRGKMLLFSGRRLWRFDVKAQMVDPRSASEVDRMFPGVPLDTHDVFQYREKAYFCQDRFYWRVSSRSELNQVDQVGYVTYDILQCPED
Procedure: as §1

[3] = mean ± SE, Fig. 5e prints no unit, µM, read-out: IC50
[4] = Figure 5d, fragment combination joined by linker, read-out: MMP2 IC50
[5] = Figure 5d, fragment combination joined by linker, read-out: MMP9 IC50

- remaining activity (%) ([1]; MMP-2, concentration 0.09 µM): 97.26
- remaining activity (%) ([1]; MMP-2, concentration 0.36 µM): 110.41
- remaining activity (%) ([1]; MMP-2, concentration 1.46 µM): 108.70
- remaining activity (%) ([1]; MMP-2, concentration 5.83 µM): 101.42
- remaining activity (%) ([1]; MMP-2, concentration 23.31 µM): 109.20
- remaining activity (%) ([1]; MMP-2, concentration 93.25 µM): 102.62
- remaining activity (%) ([1]; MMP-2, concentration 373.00 µM): 72.08
- remaining enzyme activity (% of control) ([2]; MMP-9, concentration 0.09 µM): 91.31
- remaining enzyme activity (% of control) ([2]; MMP-9, concentration 0.36 µM): 105.17
- remaining enzyme activity (% of control) ([2]; MMP-9, concentration 1.46 µM): 94.51
- remaining enzyme activity (% of control) ([2]; MMP-9, concentration 5.83 µM): 85.81
- remaining enzyme activity (% of control) ([2]; MMP-9, concentration 23.31 µM): 80.00
- remaining enzyme activity (% of control) ([2]; MMP-9, concentration 93.25 µM): 70.35
- remaining enzyme activity (% of control) ([2]; MMP-9, concentration 373.00 µM): 44.33
- IC50 [2, 3]: 281 ± 97.2 µM
SMILES: Cn1c(O)nc2cc(C(=O)NCCNC(=O)CSCCNC(=O)Cn3cnc4c(oc5ccccc54)c3=O)cnc21 [182+826 Linker 24]

- IC50 [1, 4]: 417 µM
- IC50 [2, 5]: 358 µM
SMILES: Cc1cc(=O)[nH]c(-n2nc(C)c(CCC(=O)NCCSCC(=O)NCCNC(=O)c3cnc4c(c3)nc(O)n4C)c2C)n1 [693_826 24]

- IC50 [1, 4]: 204 µM
- IC50 [2, 5]: 312 µM
SMILES: Cc1cc(=O)[nH]c(-n2nc(C)c(CCC(=O)NCc3c[nH]nn3)c2C)n1 [693_787 1]

- remaining activity (%) ([1]; MMP-2, concentration 0.0156 µM): 90.99
- remaining activity (%) ([1]; MMP-2, concentration 0.08 µM): 98.42
- remaining activity (%) ([1]; MMP-2, concentration 0.39 µM): 91.65
- remaining activity (%) ([1]; MMP-2, concentration 1.95 µM): 90.86
- remaining activity (%) ([1]; MMP-2, concentration 9.75 µM): 84.93
- remaining activity (%) ([1]; MMP-2, concentration 48.76 µM): 72.64
- remaining activity (%) ([1]; MMP-2, concentration 243.80 µM): 40.04
- remaining activity (%) ([1]; MMP-2, concentration 1219.00 µM): 8.77
- IC50 ([1]; mean ± SE, Fig. 5d unit inferred, µM, read-out: IC50): 169 ± 32.6 µM
- remaining enzyme activity (% of control) ([2]; MMP-9, concentration 0.08 µM): 100.71
- remaining enzyme activity (% of control) ([2]; MMP-9, concentration 0.39 µM): 80.60
- remaining enzyme activity (% of control) ([2]; MMP-9, concentration 1.95 µM): 86.03
- remaining enzyme activity (% of control) ([2]; MMP-9, concentration 9.75 µM): 91.12
- remaining enzyme activity (% of control) ([2]; MMP-9, concentration 48.76 µM): 86.75
- remaining enzyme activity (% of control) ([2]; MMP-9, concentration 243.80 µM): 51.81
- remaining enzyme activity (% of control) ([2]; MMP-9, concentration 1219.00 µM): 0.00
- IC50 [2, 3]: 250 ± 24.6 µM
SMILES: Cc1cc(=O)[nH]c(-n2nc(C)c(CCC(=O)NCCCCCCCCNC(=O)CCC(=O)NCc3c[nH]nn3)c2C)n1 [693+787 Linker 4]

- remaining activity (%) ([1]; MMP-2, concentration 0.12 µM): 102.86
- remaining activity (%) ([1]; MMP-2, concentration 0.49 µM): 110.62
- remaining activity (%) ([1]; MMP-2, concentration 1.95 µM): 101.91
- remaining activity (%) ([1]; MMP-2, concentration 7.81 µM): 112.01
- remaining activity (%) ([1]; MMP-2, concentration 31.25 µM): 94.11
- remaining activity (%) ([1]; MMP-2, concentration 125.00 µM): 93.82
- remaining activity (%) ([1]; MMP-2, concentration 500.00 µM): 94.00
- remaining enzyme activity (% of control) ([2]; MMP-9, concentration 0.12 µM): 103.98
- remaining enzyme activity (% of control) ([2]; MMP-9, concentration 0.49 µM): 100.00
- remaining enzyme activity (% of control) ([2]; MMP-9, concentration 1.95 µM): 102.00
- remaining enzyme activity (% of control) ([2]; MMP-9, concentration 7.81 µM): 100.00
- remaining enzyme activity (% of control) ([2]; MMP-9, concentration 31.25 µM): 108.11
- remaining enzyme activity (% of control) ([2]; MMP-9, concentration 125.00 µM): 104.50
- remaining enzyme activity (% of control) ([2]; MMP-9, concentration 500.00 µM): 89.34
SMILES: Cn1c(O)nc2cc(C(=O)NCCSCC(=O)NCC34CC5CC(CC(C5)C3)C4)cnc21 [66+826 Linker 24]

- IC50 [1, 4]: 293 µM
- IC50 [2, 5]: 521 µM
SMILES: O=C(CNC(=O)NC12CC3CC(CC(C3)C1)C2)NCCOCCOCCNC(=O)c1cncc(O)c1 [66_828 10]

- remaining activity (%) ([1]; MMP-2, concentration 0.12 µM): 100.61
- remaining activity (%) ([1]; MMP-2, concentration 0.49 µM): 101.27
- remaining activity (%) ([1]; MMP-2, concentration 1.95 µM): 97.44
- remaining activity (%) ([1]; MMP-2, concentration 7.81 µM): 105.49
- remaining activity (%) ([1]; MMP-2, concentration 31.25 µM): 103.49
- remaining activity (%) ([1]; MMP-2, concentration 125.00 µM): 92.36
- remaining activity (%) ([1]; MMP-2, concentration 500.00 µM): 84.19
- remaining enzyme activity (% of control) ([2]; MMP-9, concentration 0.12 µM): 100.10
- remaining enzyme activity (% of control) ([2]; MMP-9, concentration 0.49 µM): 107.84
- remaining enzyme activity (% of control) ([2]; MMP-9, concentration 1.95 µM): 98.21
- remaining enzyme activity (% of control) ([2]; MMP-9, concentration 7.81 µM): 95.90
- remaining enzyme activity (% of control) ([2]; MMP-9, concentration 31.25 µM): 93.30
- remaining enzyme activity (% of control) ([2]; MMP-9, concentration 125.00 µM): 76.07
- remaining enzyme activity (% of control) ([2]; MMP-9, concentration 500.00 µM): 54.11
SMILES: Cc1cc(=O)[nH]c(-n2nc(C)c(CCC(=O)NCCNC(=O)c3cnc4c(c3)nc(O)n4C)c2C)n1 [693+826 Linker 1]

Reference: paper PMC10023787, “Trio-pharmacophore DNA-encoded chemical library for simultaneous selection of fragments and linkers” (Nature Communications, 2023)
